Data reported in US4299839A, “Novel pesticides and pesticidal compositions cyclopropanecarboxylates and pesticidal method” (priority 1979, dated 1981).

Test system: green rice leafhoppers
Assay: Utility Example 1: emulsifiable concentrate sprayed over rice seedlings, green rice leafhopper mortality
Format: in vivo
Details: 30% emulsifiable concentrate diluted 300-fold, 100 ml/pot, 24 hours; cis/trans 50/50
Experimental: To 30 parts of each of Compounds (1) to (38) were added 50 parts of xylene and 20 parts of Sorpol SM-200 (a surfactant, trademark of Toho Chemical Co., Ltd.). The mixture was stirred well and dissolved to obtain a 30% emulsifiable concentrate.
The emulsifiable concentrate prepared from Compounds (7), (11), (12), (15), (17), (21) and (22) [Each compound is a mixture of cis- and trans-isomer in a ratio 50/50] in Formulation Example 5 were each diluted 300-fold with water. Then, each of the dilutions was sprayed over rice seedlings 25 days after sowing at the rate of 100 ml/pot. The pot was covered with a wire net and 15 green rice leafhoppers were released under the net. After 24 hours, the leafhoppers were examined for deaths. The mortality (%) was not less than 90% for each of Compounds (7), (11), (12), (15), (17), (21) and (22).

SMILES	Mortality (%)
CC1(C)C(CC(Cl)(Cl)Cl)C1C(=O)OC(C#N)c1cccc(Oc2ccc(Br)cc2)c1 (stereo not drawn) [(17), 3-(4-Bromophenoxy)-α-cyanobenzyl 2,2-dimethyl-3-(2,2,2-trichloroethyl)cyclopropanecarboxylate]	not less than 90%
C#CC(OC(=O)C1C(CC(Cl)(Cl)Cl)C1(C)C)c1cccc(Oc2ccc(Br)cc2)c1 (stereo not drawn) [(22), 3-(4-Bromophenoxy)-α-ethynylbenzyl 2,2-dimethyl-3-(2,2,2-trichloroethyl)cyclopropanecarboxylate]	not less than 90%
